Measured values taken from PubChem BioAssay (NCI).
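Five concentrations, 48 hours, 96-well plates. TGI marks complete inhibition of growth.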

Key:
Experiment in all cases: growth of human tumour cells (NCI), 48 h
HCC-2998 colon = system: HCC-2998 colon
HT29 colon = system: HT29 colon
KM12 colon = system: KM12 colon
OVCAR-4 ovarian = system: OVCAR-4 ovarian
OVCAR-5 ovarian = system: OVCAR-5 ovarian
RXF 393 renal = system: RXF 393 renal
SF-268 CNS = system: SF-268 CNS
SF-539 CNS = system: SF-539 CNS
SK-MEL-5 melanoma = system: SK-MEL-5 melanoma
SNB-19 CNS = system: SNB-19 CNS
TK-10 renal = system: TK-10 renal

SMILES | TGI (HCC-2998 colon) [µM] | TGI (HT29 colon) [µM] | TGI (KM12 colon) [µM] | TGI (OVCAR-4 ovarian) [µM] | TGI (OVCAR-5 ovarian) [µM] | TGI (RXF 393 renal) [µM] | TGI (SF-268 CNS) [µM] | TGI (SF-539 CNS) [µM] | TGI (SK-MEL-5 melanoma) [µM] | TGI (SNB-19 CNS) [µM] | TGI (TK-10 renal) [µM]
COc1ccc(N=C/C=C/Nc2ccc(OC)cc2)cc1 | 22.1 | 8.31 | 9.55 | 9.99 | 29.6 | 18.5 | 21.3 | 24.1 | 19.5 | 10.4 | 27.4
Cc1nc2ccccc2n1CCc1nc2ccccc2s1 | > 100 | > 100 | > 100 | > 100 | > 100 | > 100 | > 100 | > 100 | 23.6 | > 100 | > 100
NNC(=O)c1ccccc1NC(=O)/C(=C/c1ccccc1)NC(=O)c1ccccc1 | > 100 | > 100 | > 100 | > 100 | > 100 | > 100 | > 100 | > 100 | > 100 | > 100 | > 100
COc1ccc(-c2cc(-c3ccc(Nc4ccnc5cc(Cl)ccc45)cc3)nc(N)c2C#N)c2ccccc12 | > 100 | > 100 | > 100 | > 100 | > 100 | > 100 | > 100 | > 100 | > 100 | > 100 | > 100
COC(=O)c1c(O)ccc2c1c1c(n2C)C(=O)c2ccccc2C1=O | 49.3 | > 100 | > 100 | 80.6 | > 100 | 42 | 43.6 | 65.1 | > 100 | 50.9 | 86.4
CC1(C)N=C(N)N=C(N)N1c1cccc(CSc2ccccc2)c1 | > 100 | > 100 | > 100 | > 100 | > 100 | 95.9 | > 100 | > 100 | 13.5 | > 100 | > 100
O=C1CC(c2cccc(Cl)c2)n2cccc21 (configuration not stated) | > 100 | > 100 | > 100 | > 100 | > 100 | > 100 | > 100 | > 100 |  | > 100 | > 100
COc1ccc2c(c1)CC[C@@H]1[C@@H]2CC[C@]2(C)/C(=N/OCCN3CCCCC3)CC[C@@H]12 | 8.26 | 3.67 | 13.2 | 27.2 | 16.6 | 8.17 | 24.7 | 7.64 | 6.27 | 21 | 14.4
CCCCCC(C)C[C@H]1CO[C@H](c2ccc[nH]2)N[C@H]1C(=O)OC (some centres not stated) | > 100 | > 100 | > 100 | > 100 | > 100 | > 100 | > 100 | > 100 | > 100 | > 100 | > 100
CC1=C(N2CC2)C(=O)c2nc3n(c2C1=O)CCC3O (configuration not stated) | 0.328 | 3.37 | 0.699 | 0.269 | 3.84 | 0.398 | 0.629 | 0.669 | 0.0562 | 0.97 | 0.285
CN(C)Cc1cc(C(=O)/C=C/c2ccc(/C=C/C(=O)c3cc(CN(C)C)c(O)c(CN(C)C)c3)cc2)cc(CN(C)C)c1O | 33.4 | 37.7 | 56.3 | > 100 | 59.8 | > 100 | > 100 | 78.8 | > 100 | > 100 | > 100
CN(C)CCCOC(=O)C(O)(Cc1ccccc1)C1CC1 (configuration not stated) | > 100 | > 100 | > 100 | > 100 | > 100 | > 100 | > 100 | > 100 | > 100 | > 100 | > 100
COc1cc(C2c3cc4c(cc3OC(N3CCOCC3)C2C)OCO4)cc(OC)c1O (configuration not stated) | > 57.8 | 27.7 | > 100 | > 100 | > 100 | 85.4 | > 100 | 22 | 17.5 | > 75.1 | 70.6
COC(=O)CC1C2CC3C(C2=O)C13 (configuration not stated) | > 100 | > 100 | > 100 | > 100 | > 100 | > 100 | > 100 | > 100 | > 100 | > 100 | > 100
COc1cccc(/C=C/C2=NN(c3cccc(S(=O)(=O)O)c3)C3(C2)SCC(=O)N3c2nc3ccccc3s2)c1 (configuration not stated) | > 100 | > 100 | > 100 | > 100 | > 100 | > 100 | > 100 | 37.4 | > 100 | > 100 | 81.1
CN(C)CCOc1ccc(-c2c(Oc3ccc(Cl)cc3)c(=O)oc3ccccc23)cc1 | 12.3 | > 38.7 | 48.1 | 28.1 | 35.7 | > 48.3 | 29.5 | > 62.5 | 4.55 | > 46 | 29.9
O=C1CC(O)c2c(Cl)sc(Cl)c21 (configuration not stated) | 46.3 | 10 | > 22.7 | 54.3 | 33 | 12.2 | 17.8 | 22.9 | 43.5 | 40.2 | 30.1
COc1cc2c(cc1OCCCC(=O)Nc1cc(C(=O)Nc3cc(C(=O)NCCCN(C)C)n(C)n3)n(C)n1)N=CC1CCCN1C2=O (configuration not stated) | 37.9 | 30.8 | > 100 | 26.5 | 37.7 | 33.6 | 41.2 | 44.1 | 30.1 | 34.2 | 35.7
